Measured values: patent US20190374533A1, “COMPOUNDS AND METHODS FOR INHIBITING NHE-MEDIATED ANTIPORT IN THE TREATMENT OF DISORDERS ASSOCIATED WITH FLUID RETENTION OR SALT OVERLOAD AND GASTROINTESTINAL TRACT DISORDERS” (Ardelyx, Inc., priority 2008, published 2019)

What was measured:
[1] = Parallel artificial membrane permeability assay (PAMPA); settings: pH 7.4
rat NHE-3 = target: T1, rat NHE-3 (Rattus norvegicus, UniProt P26433); test: Cell-based assay of NHE-3 activity (Pharmacological Test Example 1); settings: OK cells expressing rat NHE-3; 0-30 uM test compound, 5 uM EIPA
T1 construct: expressed in transfected cells; host or cells: Opossum kidney (OK) cells (ATCC), electroporated
Procedure, shortened: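 Na+-dependent H+ exchange tracked with the pH-sensitive dye BCECF in opossum kidney cells transiently expressing rat NHE-3. Intracellular acidification by NH4Cl prepulse, then 10 min in ammonium- and Na+-free HEPES, pH 7.4, room temperature. Initial rates averaged over 3-6 replicates give pIC50.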

fecal water content = test: Pharmacodynamic model: effect of test compounds on fecal water content; type: in vivo, rat; settings: female Sprague Dawley rats, 3 mg/kg oral, feces collected 16 hrs; for % Fecal water: mean of 6
Procedure: Normal female Sprague Dawlev rats (Charles-River laboratories international, Hollister, Calif.), 7-8 weeks old with body weight 175-200 g were acclimated for at least 3 days before proceeding to experiments. The animals were provided food (Harlan Teklad 2018c) and water ad lib, through the experiment. Animals were randomly grouped with 6 rats per group.
The experiments were initiated by orally dosing test compounds at 3 mg/kg in volume of 10 ml/kg. Rats from control group were gavaged with the same volume of vehicle (water). After dosing, rats were placed in metabolic cages for 16 hrs (overnight). Food and water consumption were monitored. After sixteen hours, feces and urine were collected. The percent of fecal water was measured by weighing fecal samples before and after drying.
Representative data of % fecal water content are shown in Table 12 (data are expressed as means, with 6 animals per data point). The differences between control and treated groups were evaluated by one way ANOVA with Dunnett post tests. Results are significant if p<0.05.

[2] = Determination of compound Cmax and AUC; type: in vivo; settings: rat; Sprague-Dawley rats, oral gavage, serum 0.5-4 h; actual oral dose (mg/kg) given
Procedure, shortened: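 Sprague-Dawley rats dosed orally by gavage at 2.5 mg/kg; serum sampled at 0.5, 1, 2 and 4 h. Acetonitrile protein precipitation, then LC/MS/MS quantitation against a standard curve.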

T1 sequence (P26433 29-831): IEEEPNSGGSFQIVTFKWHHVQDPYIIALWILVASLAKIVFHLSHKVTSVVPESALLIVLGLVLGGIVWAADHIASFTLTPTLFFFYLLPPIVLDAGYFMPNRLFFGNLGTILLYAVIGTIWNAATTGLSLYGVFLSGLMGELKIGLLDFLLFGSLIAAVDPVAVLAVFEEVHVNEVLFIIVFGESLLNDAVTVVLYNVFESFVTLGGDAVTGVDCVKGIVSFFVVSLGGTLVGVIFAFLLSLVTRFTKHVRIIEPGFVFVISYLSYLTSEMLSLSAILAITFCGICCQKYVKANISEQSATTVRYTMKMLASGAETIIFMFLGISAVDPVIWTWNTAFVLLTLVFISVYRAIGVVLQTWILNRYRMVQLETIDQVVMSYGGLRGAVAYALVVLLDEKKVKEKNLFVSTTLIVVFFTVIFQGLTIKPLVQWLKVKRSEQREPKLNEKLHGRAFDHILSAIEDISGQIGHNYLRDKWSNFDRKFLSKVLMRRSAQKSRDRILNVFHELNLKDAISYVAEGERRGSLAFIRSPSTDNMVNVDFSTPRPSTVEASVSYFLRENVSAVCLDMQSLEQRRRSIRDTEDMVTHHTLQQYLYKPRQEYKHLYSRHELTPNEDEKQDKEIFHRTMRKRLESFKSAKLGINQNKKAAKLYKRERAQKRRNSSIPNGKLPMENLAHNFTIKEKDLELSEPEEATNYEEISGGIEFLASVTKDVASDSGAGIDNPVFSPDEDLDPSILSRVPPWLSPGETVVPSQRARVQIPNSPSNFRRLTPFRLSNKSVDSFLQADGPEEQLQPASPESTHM

SMILES	Papp A→B at 3 h, 20 uM [1]	rat NHE-3 Average pIC50 (rat NHE-3)	further results
CN1Cc2c(Cl)cc(Cl)cc2C(c2ccc(NS(=O)(=O)NCCP(=O)([O-])[O-])cc2)C1.[Na+].[Na+] (centres unmarked) [Example 30, 2-(N-(4-(6,8-dichloro-2-methyl-1,2,3,4-tetrahydroisoquinolin-4-yl)phenyl)sulfamoylamino)ethylphosphonic acid]	0.56 ×10⁻⁶ cm/s	5 to 6	
NC(N)=Nc1nc(-c2cccc(N3CCN(C(=O)[C@H](O)[C@@H](O)[C@H](O)[C@H](O)CO)CC3)c2)c2cc(Cl)ccc2n1 [Example 63, 2-(6-chloro-4-(3-(4-((2R,3S,4R,5R)-2,3,4,5,6-pentahydroxyhexanoyl)piperazin-1-yl)phenyl)quinazolin-2-yl)guanidine]	0.43 ×10⁻⁶ cm/s	5 to 6	
C/C(=C\c1cc(F)c(Oc2ccc(S(=O)(=O)NCc3ccc(CP(=O)(O)O)cc3)cc2)c(F)c1)C(=O)N=C(N)N [Example 52, (E)-4-((4-(4-(3-(diaminomethyleneamino)-2-methyl-3-oxoprop-1-enyl)-2,6-difluorophenoxy)phenylsulfonamido)methyl)benzylphosphonic acid]	1.61 ×10⁻⁶ cm/s	5 to 6	
N=C(N)N1CCN(c2cccc(-c3nc(N=C(N)N)nc4ccc(Cl)cc34)c2)CC1 [Example 60, 4-(3-(6-chloro-2-(diaminomethyleneamino)quinazolin-4-yl)phenyl)piperazine-1-carboximidamide]	0.99 ×10⁻⁶ cm/s	6 to 7	
NC(N)=Nc1nc(-c2cccc(N3CCN(CCO)CC3)c2)c2cc(Cl)ccc2n1 [Example 68, 2-(6-chloro-4-(3-(4-(2-hydroxyethyl)piperazin-1-yl)phenyl)quinazolin-2-yl)guanidine]	0.35 ×10⁻⁶ cm/s	6 to 7	
C/C(=C\c1cc(F)c(Oc2ccc(S(=O)(=O)NCCCP(=O)(O)O)cc2)c(F)c1)C(=O)N=C(N)N [Example 54, (E)-3-(4-(4-(3-(diaminomethyleneamino)-2-methyl-3-oxoprop-1-enyl)-2,6-difluorophenoxy)phenylsulfonamido)propylphosphonic acid]	1.3 ×10⁻⁶ cm/s	5 to 6	
CN1Cc2c(Cl)cc(Cl)cc2C(c2ccc(S(=O)(=O)NCCOCCOCCNC(=O)NCCCCNC(=O)NCCOCCOCCNS(=O)(=O)c3ccc(C4CN(C)Cc5c(Cl)cc(Cl)cc54)cc3)cc2)C1 (centres unmarked) [Example 238, N,N′-(10,17-dioxo-3,6,21,24-tetraoxa-9,11,16,18-tetraazahexacosane-1,26-diyl)bis(4-(6,8-dichloro-2-methyl-1,2,3,4-tetrahydroisoquinolin-4-yl)benzenesulfonamide)]			% Fecal water (% of control) (fecal water content): 121% of control; % Fecal water (fecal water content): 60%
CN1Cc2c(Cl)cc(Cl)cc2C(c2cccc(NS(=O)(=O)NCCP(=O)(O)O)c2)C1 (centres unmarked) [Example 31, 2-(N-(3-(6,8-dichloro-2-methyl-1,2,3,4-tetrahydroisoquinolin-4-yl)phenyl)sulfamoylamino)ethylphosphonic acid]	0.61 ×10⁻⁶ cm/s	5 to 6	
NC(N)=Nc1nc(-c2ccc(N3CCN(CCO)CC3)cc2)c2cc(Cl)ccc2n1 [Example 69, 2-(6-chloro-4-(4-(4-(2-hydroxyethyl)piperazin-1-yl)phenyl)quinazolin-2-yl)guanidine]	0.3 ×10⁻⁶ cm/s	6 to 7	
CN1Cc2c(Cl)cc(Cl)cc2C(c2ccc(S(=O)(=O)NCCOCCOCCNC(=O)Nc3ccc(NC(=O)NCCOCCOCCNS(=O)(=O)c4ccc(C5CN(C)Cc6c(Cl)cc(Cl)cc65)cc4)cc3)cc2)C1 (centres unmarked) [Example 239, N,N′-(2,2′-(2,2′-(2,2′-(1,4-phenylenebis(azanediyl))bis(oxomethylene)bis(azanediyl)bis(ethane-2,1-diyl))bis(oxy)bis(ethane-2,1-diyl))bis(oxy)bis(ethane-2,1-diyl))bis(4-(6,8-dichloro-2-methyl-1,2,3,4-tetrahydroisoquinolin-4-yl)benzenesulfonamide)]			% Fecal water (% of control) (fecal water content): 114% of control; % Fecal water (fecal water content): 58%
CN1Cc2c(Cl)cc(Cl)cc2C(c2cccc(S(=O)(=O)NCCP(=O)(O)O)c2)C1 (centres unmarked) [Example 1, 2-(3-(6,8-dichloro-2-methyl-1,2,3,4-tetrahydroisoquinolin-4-yl)phenylsulfonamido)ethylphosphonic acid]	0.53 ×10⁻⁶ cm/s		AUC [2]: 53 ng·h/mL; Cmax [2]: 21 ng/mL
C/C(=C\c1cc(F)c(Oc2ccc(S(=O)(=O)NC(=O)NCCN(C)C)cc2)c(F)c1)C(=O)N=C(N)N [Example 75, (E)-N-(diaminomethylene)-3-(4 (4-(N-(2-(dimethylamino)ethylcarbamoyl)sulfamoyl)phenoxy)-3,5-difluorophenyl)-2-methylacrylamide]	0.4 ×10⁻⁶ cm/s		
C/C(=C\c1cc(F)c(Oc2ccc(S(=O)(=O)NC(CC(=O)O)C(=O)O)cc2)c(F)c1)C(=O)N=C(N)N (centres unmarked) [Example 59, (E)-2-(4-(4-(3-(diaminomethyleneamino)-2-methyl-3-oxoprop-1-enyl)-2,6-difluorophenoxy)phenylsulfonamido)succinic acid]	0.1 ×10⁻⁶ cm/s		
C/C(=C\c1cc(F)c(Oc2ccc(S(=O)(=O)NCCOCCOCCOCCNS(=O)(=O)c3ccc(Oc4c(F)cc(/C=C(\C)C(=O)N=C(N)N)cc4F)cc3)cc2)c(F)c1)C(=O)N=C(N)N [Example 44, N,N′-(2,2′-(2,2′-oxybis(ethane-2,1-diyl)bis(oxy))bis(ethane-2,1-diyl))bis[(E)-N-(diaminomethylene)-3-(3,5-difluoro-4-(4-sulfamoylphenoxy)phenyl)-2-methylacrylamide]]	0.1 ×10⁻⁶ cm/s		
CN1Cc2c(Cl)cc(Cl)cc2C(c2ccc(S(=O)(=O)NCCCCCCCCCCCCNS(=O)(=O)c3ccc(C4CN(C)Cc5c(Cl)cc(Cl)cc54)cc3)cc2)C1 (centres unmarked) [Example 23, N,N′-(dodecane-1,12-diyl)bis(4-(6,8-dichloro-2-methyl-1,2,3,4-tetrahydroisoquinolin-4-yl)benzenesulfonamide)]	< 0.04 ×10⁻⁶ cm/s		
C/C(=C\c1cc(F)c(Oc2ccc(S(=O)(=O)NCCCS(=O)(=O)O)cc2)c(F)c1)C(=O)N=C(N)N [Example 71, (E)-3-(4-(4-(3-(diaminomethyleneamino)-2-methyl-3-oxoprop-1-enyl)-2,6-difluorophenoxy)phenylsulfonamido)propane-1-sulfonic acid]	0.45 ×10⁻⁶ cm/s		
CN1Cc2c(Cl)cc(Cl)cc2C(c2ccc(NC(=O)NCP(=O)(O)O)cc2)C1 (centres unmarked) [Example 38, (3-(4-(6,8-dichloro-2-methyl-1,2,3,4-tetrahydroisoquinolin-4-yl)phenyl)ureido)methylphosphonic acid]	0.1 ×10⁻⁶ cm/s		
C/C(=C\c1cc(F)c(Oc2ccc(S(=O)(=O)NCCOCCOCCOCCn3cc(CO)nn3)cc2)c(F)c1)C(=O)N=C(N)N [Example 48, (E)-N-(diaminomethylene)-3-(3,5-difluoro-4-(4-(N-(2-(2-(2-(2-(4-(hydroxymethyl)-1H-1,2,3-triazol-1-yl)ethoxy)ethoxy)ethoxy)ethyl)sulfamoyl)phenoxy)phenyl)-2-methylacrylamide]	0.9 ×10⁻⁶ cm/s		
CN1Cc2c(Cl)cc(Cl)cc2C(c2ccc(S(=O)(=O)NCc3ccc(CP(=O)(O)O)cc3)cc2)C1 (centres unmarked) [Example 14, (4-((4-(6,8-dichloro-2-methyl-1,2,3,4-tetrahydroisoquinolin-4-yl)phenylsulfonamido)methyl)phenyl) methylphosphonic acid]	0.4 ×10⁻⁶ cm/s		
C/C(=C\c1cc(F)c(Oc2ccc(S(=O)(=O)Nc3ccc(P(=O)(O)O)cc3)cc2)c(F)c1)C(=O)N=C(N)N [Example 51, (E)-4-(4-(4-(3-(diaminomethyleneamino)-2-methyl-3-oxoprop-1-enyl)-2,6-difluorophenoxy)phenylsulfonamido)phenylphosphonic acid]	0.2 ×10⁻⁶ cm/s		
CN1Cc2c(Cl)cc(Cl)cc2C(c2ccc(S(=O)(=O)NCCN(CCNS(=O)(=O)c3ccc(C4CN(C)Cc5c(Cl)cc(Cl)cc54)cc3)CCNS(=O)(=O)c3ccc(C4CN(C)Cc5c(Cl)cc(Cl)cc54)cc3)cc2)C1 (centres unmarked) [Example 24, N,N′,N″-(2,2′,2″-nitrilotris(ethane-2,1-diyl))tris(4-(6,8-dichloro-2-methyl-1,2,3,4-tetrahydroisoquinolin-4-yl)benzenesulfonamide)]	0.03 ×10⁻⁶ cm/s		
C/C(=C\c1cc(F)c(Oc2ccc(S(=O)(=O)NCCOCCOCCOCCNC(=O)CCCCCCC(=O)NCCOCCOCCOCCNS(=O)(=O)c3ccc(Oc4c(F)cc(/C=C(\C)C(=O)N=C(N)N)cc4F)cc3)cc2)c(F)c1)C(=O)N=C(N)N [Example 47, N,N′-(13,20 dioxo-3,6,9, 24, 27, 30-hexaoxa-12, 21-diazadotriacontane-1,32-diyl)bis[(E)-N-(diaminomethylene)-3-(3,5-difluoro-4-(4-sulfamoylphenoxy)phenyl)-2-methylacrylamide]]	< 0.01 ×10⁻⁶ cm/s	>7	
